We go through three molecules from US8722849B2, “Polypeptides” (Novo Nordisk A/S, priority 2011, dated 2014).

≈ marks a conversion by molar mass, not a printed value. Like-named read-outs stand apart in the source and are kept apart here. Starred links: 1 amine or outer side, 2 acyl side, 3 side chain; linkers in the order of their positions; H or OH if unused. Positions of bridges follow the written chain, without caps; N, C: chain ends. Residues, ends and D or L forms follow the SMILES beside them. *: point of attachment. C20 diacid = O=C(O)CCCCCCCCCCCCCCCCCCC(=O)*; γGlu = O=C(O)[C@H](CCC(=O)[*:2])N[*:1]

Series [1] concerns the target T1, human amylin receptor (amylin 3(a) receptor: human calcitonin receptor + RAMP-3) (Homo sapiens, UniProt O60896+P30988).
T1 construct: expressed in transfected cells; host or cells: BHK570
T1 sequence (P30988 25-474): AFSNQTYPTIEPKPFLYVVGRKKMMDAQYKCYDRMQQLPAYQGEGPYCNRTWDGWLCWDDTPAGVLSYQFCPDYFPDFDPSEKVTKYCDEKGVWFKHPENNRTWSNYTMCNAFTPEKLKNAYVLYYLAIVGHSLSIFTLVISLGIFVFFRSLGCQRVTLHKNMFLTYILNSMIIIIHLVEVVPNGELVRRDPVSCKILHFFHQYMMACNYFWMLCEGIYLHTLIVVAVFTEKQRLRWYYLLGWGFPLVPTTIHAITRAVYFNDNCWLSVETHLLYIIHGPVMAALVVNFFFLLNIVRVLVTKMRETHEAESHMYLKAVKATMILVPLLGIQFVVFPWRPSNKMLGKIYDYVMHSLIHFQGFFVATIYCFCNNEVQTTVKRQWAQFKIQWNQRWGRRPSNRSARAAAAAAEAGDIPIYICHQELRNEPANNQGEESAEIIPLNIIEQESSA
T1 sequence (O60896 24-148 partner): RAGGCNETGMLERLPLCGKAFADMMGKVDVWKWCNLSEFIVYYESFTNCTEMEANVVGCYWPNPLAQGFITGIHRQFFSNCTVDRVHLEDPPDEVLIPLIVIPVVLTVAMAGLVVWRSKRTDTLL
Nature of the series: Assay (II)a functional CRE-luciferase assay, human amylin receptor. The series is classed as cell-based.

For series [2], the target named is T2, human calcitonin receptor (Homo sapiens, UniProt P30988).
T2 construct: expressed in transfected cells; host or cells: BHK570
T2 sequence (P30988 25-474): T1 sequence (P30988 25-474)
The series is described as follows: Assay (II)a functional CRE-luciferase assay, human calcitonin receptor. The class given is cell-based.

Series [3] can be described thus: Assay (III) ThT fibrillation assay for physical stability. The class given is physicochemical. The following applies: ThT fibrillation assay. The procedure, abridged: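 Freshly prepared formulations, pH-adjusted, with 1 μM ThT; four or eight replicates incubated at 37 °C under 960 rpm orbital shaking. Fluorescence (ex 444/em 485 nm) read every 20 min; […]. Peptide concentration measured by RP-HPLC before and after the run.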

Series [4] in a line: Assay (IV) determination of solubility. The class given is physicochemical. The procedure, abridged: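 Stock ~500 nmol/ml in water; 1:1 with 100 mM buffer, pH 3.0–8.0 (glycylglycine ≤5.0, bistrispropane ≥6.0); 18 h RT; spin; HPLC quantitation of soluble polypeptide.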
The mark [5] stands for this setting: Table 2, BHK amylin 3(a)-receptor/CRE-luc cells.
[6] abbreviates: Table 7, human calcitonin (CTa) receptor.
Setting [7] is: bistrispropane buffer, pH 6, pH 6.0, read-out: Solubility pH 6.0.
Setting [8] is: bistrispropane buffer, pH 6.5, pH 6.5, read-out: Solubility pH 6.5.
[9] abbreviates: bistrispropane buffer, pH 7, pH 7.0, read-out: Solubility pH 7.0.
[10] abbreviates: bistrispropane buffer, pH 7.5, pH 7.5, read-out: Solubility pH 7.5.
Where [11] appears, read: bistrispropane buffer, pH 8, pH 8.0, read-out: Solubility pH 8.0.
Where [12] appears, read: glycylglycine buffer, pH 3, pH 3.0, read-out: Solubility pH 3.0.
Where [13] appears, read: glycylglycine buffer, pH 4, pH 4.0, 18 hours at room temperature, Table 2, read-out: Solubility pH 4.0.
Setting [14] is: glycylglycine buffer, pH 4, pH 4.0, read-out: Solubility pH 4.0.
Setting [15] is: glycylglycine buffer, pH 5, pH 5.0, read-out: Solubility pH 5.0.

A word on the EC50: it is the concentration needed to bring the measured effect to its halfway point. The solubility is the dissolved amount per volume that the medium holds. With `CC[C@H](C)[C@H](NC(=O)[C@@H]1CCCN1C(=O)CNC(=O)[C@H](Cc1ccccc1)NC(=O)[C@H](CC(N)=O)NC(=O)[C@H](CC(N)=O)NC(=O)[C@H](CO)NC(=O)[C@H](CO)NC(=O)[C@H](CCCNC(=N)N)NC(=O)[C@H](Cc1c[nH]cn1)NC(=O)[C@H](CC(C)C)NC(=O)[C@H](Cc1ccccc1)NC(=O)[C@H](CCC(=O)O)NC(=O)[C@H](C)NC(=O)[C@H](CC(C)C)NC(=O)[C@H](CCCNC(=N)N)NC(=O)[C@H](CCC(N)=O)NC(=O)[C@@H](NC(=O)[C@H](C)NC(=O)[C@@H]1CSSC[C@H](NC(=O)[C@H](CCC(=O)O)NC(=O)CC[C@H](NC(=O)CCCCCCCCCCCCCCCCCCC(=O)O)C(=O)O)C(=O)N[C@@H](CC(N)=O)C(=O)N[C@@H]([C@@H](C)O)C(=O)N[C@@H](C)C(=O)N[C@@H]([C@@H](C)O)C(=O)N1)[C@@H](C)O)C(=O)N[C@@H](CC(C)C)C(=O)N1CCC[C@H]1C(=O)N1CCC[C@H]1C(=O)N[C@H](C(=O)N[C@@H](CC(N)=O)C(=O)N[C@H](C(=O)NCC(=O)N[C@@H](CO)C(=O)N[C@@H](CC(N)=O)C(=O)N[C@H](C(=O)N[C@@H](Cc1ccc(O)cc1)C(N)=O)[C@@H](C)O)C(C)C)[C@@H](C)O` [Example 30, N-alpha-[(S)-4-Carboxy-4-(19-carboxynonadecanoylamino)butyryl]-[Glu1,Glu14,His17,Arg18]-pramlintide] ({C20 diacid-γGlu}-ECNTATCATQRLAEFLHRSSNNFGPILPPTNVGSNTY-NH2; disulfide 2-7 (inferred)), the figures for the EC50 in series [1] (setting [5]) and in series [2] (setting [6]) were 0.174 nM and 0.753 nM, respectively. The “ThT pH 4.0 lag time (h)” value in series [3] was 4.7 h. Also, the solubility at 18 h in series [4] (setting [7]) is over 200 µM; in series [4] (setting [8]), over 200 µM; in series [4] (bistrispropane buffer, pH 7, pH 7.0, 18 hours at room temperature, Table 3, read-out: Solubility pH 7.0) it was over 200 µM; in series [4] (setting [9]), over 200 µM; in series [4] (setting [10]) it was over 200 µM; in series [4] (setting [11]), over 200 µM. The solubility at 18 h in series [4] (setting [12]) was over 200 µM; in series [4] (setting [13]), over 200 µM; in series [4] (setting [14]), over 200 µM; in series [4] (setting [15]), 69 µM (≈ 309 µg/mL).

As to `CC[C@H](C)[C@H](NC(=O)[C@@H]1CCCN1C(=O)CNC(=O)[C@H](Cc1ccccc1)NC(=O)[C@H](CC(N)=O)NC(=O)[C@H](CC(N)=O)NC(=O)[C@H](CO)NC(=O)[C@H](CO)NC(=O)[C@H](Cc1c[nH]cn1)NC(=O)[C@H](Cc1c[nH]cn1)NC(=O)[C@H](CC(C)C)NC(=O)[C@H](Cc1ccccc1)NC(=O)[C@H](CCC(=O)O)NC(=O)[C@H](C)NC(=O)[C@H](CC(C)C)NC(=O)[C@H](CCCNC(=N)N)NC(=O)[C@H](CCC(N)=O)NC(=O)[C@@H](NC(=O)[C@H](C)NC(=O)[C@@H]1CSSC[C@H](NC(=O)[C@H](CCCCN)NC(=O)[C@H](CO)NC(=O)CC[C@H](NC(=O)CCCCCCCCCCCCCCCCCCC(=O)O)C(=O)O)C(=O)N[C@@H](CC(N)=O)C(=O)N[C@@H]([C@@H](C)O)C(=O)N[C@@H](C)C(=O)N[C@@H]([C@@H](C)O)C(=O)N1)[C@@H](C)O)C(=O)N[C@@H](CC(C)C)C(=O)N1CCC[C@H]1C(=O)N1CCC[C@H]1C(=O)N[C@H](C(=O)N[C@@H](CC(N)=O)C(=O)N[C@H](C(=O)NCC(=O)N[C@@H](CO)C(=O)N[C@@H](Cc1c[nH]cn1)C(=O)N[C@H](C(=O)N[C@@H](Cc1ccc(O)cc1)C(N)=O)[C@@H](C)O)C(C)C)[C@@H](C)O` [Example 85, N-alpha-[(S)-4-Carboxy-4-(19-carboxynonadecanoylamino)butyryl]-Ser-[Glu14,His17,His35]-pramlintide] ({C20 diacid-γGlu}-SKCNTATCATQRLAEFLHHSSNNFGPILPPTNVGSHTY-NH2; disulfide 3-8 (inferred); C-terminus assumed), the figures for the EC50 in series [1] (setting [5]) and in series [2] (setting [6]) were 0.133 nM and 0.153 nM, respectively. Moreover, the “ThT pH 4.0 lag time” value in series [3] is recorded as over 45 h. Also, the “ThT pH 4.0 lag time (h)” value in series [3] is listed as over 45 h. Moreover, the solubility at 18 h in series [4] (setting [7]) is 185 µM (≈ 845 µg/mL); in series [4] (setting [8]), 64 µM (≈ 292 µg/mL); in series [4] (setting [9]), 22 µM (≈ 100 µg/mL); in series [4] (setting [10]), 47 µM (≈ 215 µg/mL); in series [4] (setting [11]), 109 µM (≈ 498 µg/mL); in series [4] (setting [12]) it was over 200 µM. Moreover, the solubility at 18 h in series [4] (setting [13]), in series [4] (setting [14]) and in series [4] (setting [15]) was over 200 µM throughout.

Consider `CC[C@H](C)[C@H](NC(=O)[C@@H]1CCCN1C(=O)CNC(=O)[C@H](Cc1ccccc1)NC(=O)[C@H](CC(N)=O)NC(=O)[C@H](CC(N)=O)NC(=O)[C@H](CO)NC(=O)[C@H](CO)NC(=O)[C@H](Cc1c[nH]cn1)NC(=O)[C@@H](NC(=O)[C@H](CC(C)C)NC(=O)[C@H](Cc1ccccc1)NC(=O)[C@H](CC(N)=O)NC(=O)[C@H](C)NC(=O)[C@H](CC(C)C)NC(=O)[C@H](CCCNC(=N)N)NC(=O)[C@H](CCC(N)=O)NC(=O)[C@@H](NC(=O)[C@H](C)NC(=O)[C@@H]1CSSC[C@H](NC(=O)[C@H](CCCNC(=N)N)NC(=O)CC[C@H](NC(=O)CCCCCCCCCCCCCCCCCCC(=O)O)C(=O)O)C(=O)N[C@@H](CC(N)=O)C(=O)N[C@@H]([C@@H](C)O)C(=O)N[C@@H](C)C(=O)N[C@@H]([C@@H](C)O)C(=O)N1)[C@@H](C)O)C(C)C)C(=O)N[C@@H](CC(C)C)C(=O)N1CCC[C@H]1C(=O)N1CCC[C@H]1C(=O)N[C@H](C(=O)N[C@@H](CC(N)=O)C(=O)N[C@H](C(=O)NCC(=O)N[C@@H](CO)C(=O)N[C@@H](CC(N)=O)C(=O)N[C@H](C(=O)N1CCC[C@H]1C(N)=O)[C@@H](C)O)C(C)C)[C@@H](C)O` [Example 97] ({C20 diacid-γGlu}-RCNTATCATQRLANFLVHSSNNFGPILPPTNVGSNTP-NH2; disulfide 2-7 (inferred); C-terminus assumed), for which the EC50 in series [1] (Table 11) is 0.034 nM; in series [2] (Table 11, read-out: CTa receptor human EC50), 0.0385 nM. For the same molecule, the “ThT pH 4.0 lag time (h)” value in series [3] was 1.7 h. For the same molecule, the solubility at 18 h in series [4] (setting [7]), in series [4] (setting [8]), in series [4] (setting [9]), in series [4] (setting [10]), in series [4] (setting [11]) and in series [4] (setting [12]) was over 200 µM each time. Moreover, the solubility at 18 h in series [4] (setting [14]) and in series [4] (setting [15]) was over 200 µM throughout.
